According to patent publication US8779156B2, “Analogues for the treatment or prevention of flavivirus infections” (Vertex Pharmaceuticals Incorporated, priority 2010, dated 2014):

Assays:
[1] = test system: sub-genomic HCV replicon of genotype 1a (cell line W11.8); assay: Activity determination using the ELISA and the sub-genomic replicon 1a cell line (NS5A protein level); type: cell-based; details: Hepatitis C virus
Text: Activity Determination Using the ELISA and the Sub-Genomic Replicon 1a Cell Line
The cell line W11.8 containing the sub-genomic HCV replicon of genotype 1a is used to determine the potency of the drugs. The RNA replication in presence of different drug concentrations is indirectly measured in this cell line by the level of NS5A protein content upon drug treatment for four days. It is shown that the level of the NS5A protein correlates well with the level of HCV RNA in the replicon cell line. Cells are split twice a week in order to keep the confluence state below 85% of the culture flask surface area. The culture media used for cell passaging consists of DMEM-10% foetal bovine serum with 100 UI/mL penicillin, 100 μg/mL streptomycin, 2 mM glutamine, 1 mM sodium pyruvate, non-essential amino acids (1×) and 600 μg/mL of G418 final concentrations. Monolayer of the W11.8 cells is trypsinized and cells are counted. Cells are diluted at 50,000 cells/mL with complete DMEM without G418, then approximately 5,000 viable cells (100 μL) are plated per well in a white opaque 96-well microtiter plate. After an incubation period of 2-4 hours at 37° C. in a 5% CO2 incubator, compounds are added at various concentrations. Drugs are resuspended in DMSO at a stock concentration of 10 mM. Then, drugs are serially diluted at twice the final concentration in the same medium. One volume (100 μL) of each drug dilution is then added to each well that contains cells. A control compound is used as an internal standard for each plate assay. Sixteen wells are used as control (0% inhibition) without drug. […] Values from 100% inhibited wells were averaged and used as the background value. Cells are further incubated for four days at 37° C. in a 5% CO2 incubator. Following the incubation time of four days, the media is removed and wells are washed once with 150 μL of PBS at room temperature for five minutes. Cells are then fixed for five minutes using 150 μL per well of cold (−20° C.) fixative solution (50% methanol/50% acetone mix). Cells are then washed twice with 150 μL of PBS (phosphate buffered saline) per well, following the addition of 150 μL of blocking solution, cells are incubated for one hour at 37° C. to block non-specific sites. The blocking solution is removed and cells are washed twice with 150 μL of PBS per well and once with 150 μL of PBSTS solution (PBS/0.1% Triton X-100/0.02% SDS) per well. […] Then, substrate solution (100 μl, SuperSignal ELISA Pico Chemiluminescent Substrate, Fisher Cat. No. 37069) is added in each well and plates are incubated 60 minutes at room temperature prior to reading the luminescence (relative light units) on the Analyst HT plate reader. The percentage of inhibition at each drug concentration tested (in duplicate) is calculated.

[2] = test system: HCV (1b) replicon, Huh-ET cells; assay: Cell-based luciferase reporter HCV (1b) RNA replication assay; details: Hepatitis C virus; for EC50: 96 h, HCV 1b replicon, luciferase, 4 days incubation, read-out: EC50_1b; for IC50: sub-genomic replicon 1b cell line
Text: Cell-Based Luciferase Reporter HCV (Ib) RNA Replication Assay Cell Culture
Replicon cell lines Huh-5.2 are derived from the Huh-7 hepatocarcinoma cell line are maintained in culture as generally described in Krieger, N; Lohmann, V; Bartenschlager, R. Enhancement of hepatitis C virus RNA replication by cell culture-adaptive mutations. J. Virol. 2001, 75, 4614-4624. The Huh-5.2 cells contain the highly cell culture-adapted replicon I389luc-ubi-neo/NS3-375.1 construct that carries, in addition to the neomycin gene, an integrated copy to the firefly luciferase gene (Krieger, N; Lohmann, V; Bartenschlager, R. Enhancement of hepatitis C virus RNA replication by cell culture-adaptive mutations. J. Virol. 2001, 75, 4614-4624). This cell line allows measurement of HCV RNA replication and translation by measuring luciferase activity. It has been previously shown that the luciferase activity tightly follows the replicon RNA level in these cells (Krieger, N; Lohmann, V; Bartenschlager, R. Enhancement of hepatitis C virus RNA replication by cell culture-adaptive mutations. J. Virol. 2001, 75, 4614-4624). The Huh-ET cell line has the same features as those mentioned for Huh-5.2 cell line, except that ET cells are more robust and contain an adaptative mutation in the HCV NS4B gene instead of NS5A. Both cell lines are maintained in cultures at a sub-confluent level (<85%) as the level of replicon RNA is highest in actively proliferating cells. The culture media used for cell passaging consist of DMEM (Gibco BRL Laboratories, Mississauga, ON, Canada) supplemented with 10% foetal bovine serum with 1% penicilin/streptomycin, 1% glutamine, 1% sodium pyruvate, 1% non-essential amino acids, and 180 μg/ml of G418 final concentration. Cells are incubated at 37° C., in an atmosphere of 5% CO2 and passaged twice a week to maintain sub-confluence.
Approximately 3000 viable Huh-ET cells (100 μl) are plated per well in a white opaque 96-well microtiter plate. The cell culture media used for the assay is the same as described above except that it contains no G418 and no phenol red. After an incubation period of 3-4 hours at 37° C. in a 5% CO2 incubator, compounds (100 μl) are added at various concentrations. Cells are then further incubated for 4 days at 37° C. in a 5% CO2 incubator. Thereafter, the culture media is removed and cells are lysed by the addition of 95 μL of the luciferase buffer (luciferin substrate in buffered detergent). Cell lysates are incubated at room temperature and protected from direct light for at least 10 minutes. Plates are read for luciferase counts using a luminometer (Wallac MicroBeta Trilux, Perkin Elmer™, MA, USA).
Curves are fitted to data points using nonlinear regression analysis, and IC50s are interpolated from the resulting curve using GraphPad Prism software, version 2.0 (GraphPad Software Inc., San Diego, Calif., USA).

Structure (SMILES) | IC50 [1] [pM] | EC50 [2] [nM] | IC50 [2] [pM]
COC(=O)N[C@H](C(=O)N1C[C@@H](C)C[C@H]1c1nc(-c2ccc(-c3ccc(-c4ccc5[nH]c([C@@H]6CC[C@H](C)N6C(=O)[C@@H](NC(=O)OC)C(C)C)nc5c4)cc3)cc2)c[nH]1)C(C)C [Compound 18] | 8.5 | ≤ 5 | 8.5
COC(=O)NC(C(=O)N1[C@@H](C)CC[C@H]1c1nc2cc(-c3ccc(-c4ccc(-c5cnc([C@@H]6CC[C@H](C)N6C(=O)[C@@H](NC(=O)OC)C(C)C)[nH]5)cc4)cc3)ccc2[nH]1)C(C)C (stereo partly drawn) [Compound 13, Methyl N-[(1S)-1-[(2S,5S)-2-[4-[4-[4-[2-[(2S,5S)-1-[2-(methoxycarbonylamino)-3-methyl-butanoyl]-5-methyl-pyrrolidin-2-yl]-1H-benzimidazol-5-yl]phenyl]phenyl]-1H-imidazol-2-yl]-5-methyl-pyrrolidine-1-carbonyl]-2-methyl-propyl]carbamate] | 36 | ≤ 5 | 2.6
COC(=O)N[C@H](C(=O)N1C[C@@H](C)C[C@H]1c1nc(-c2ccc(-c3ccc(-c4ccc5nc([C@@H]6C[C@H](C)CN6C(=O)[C@@H](NC(=O)OC)C(C)C)[nH]c5c4)cc3)cc2)c[nH]1)C(C)C [Compound 5, ((S)-1-{(2S,4S)-2-[5-(4′-{2-[(2S,4S)-1-((S)-2-Methoxycarbonylamino-3-methyl-butyryl)-4-methyl-pyrrolidin-2-yl]-1H-imidazol-4-yl}-biphenyl-4-yl)-1H-benzoimidazol-2-yl]-4-methyl-pyrrolidine-1-carbonyl}-2-methyl-propyl)-carbamic acid methyl ester] | 4.1 | ≤ 5 | 5
COC(=O)N[C@H](C(=O)N1CCC[C@H]1c1ncc(-c2ccc(-c3ccc(-c4ccc5[nH]c([C@@H]6CCCN6C(=O)[C@@H](NC(=O)OC)C(C)C)nc5c4)cc3)cc2)[nH]1)C(C)C [Compound 4, ((S)-1-{(S)-2-[5-(4′-{2-[(S)-1-((S)-2-Methoxycarbonylamino-3-methyl-butyryl)-pyrrolidin-2-yl]-3H-benzoimidazol-5-yl}-biphenyl-4-yl)-1H-imidazol-2-yl]-pyrrolidine-1-carbonyl}-2-methyl-propyl)-carbamic acid methyl ester] | 140 | ≤ 5 | 13
